Each structure is given as a SMILES string.

The source of these data is patent publication US20240246942A1, “KINASE INHIBITORS FOR THE TREATMENT OF NEURODEGENERATIVE DISEASES” (priority 2020, published 2024).

Holding throughout (test): biochemical
For assay [1], the target named is T1, panel of 374 wild-type kinases (Homo sapiens, UniProt O43781).
T1 construct: purchased Reaction Biology Corporation
T1 sequence (O43781 1-588): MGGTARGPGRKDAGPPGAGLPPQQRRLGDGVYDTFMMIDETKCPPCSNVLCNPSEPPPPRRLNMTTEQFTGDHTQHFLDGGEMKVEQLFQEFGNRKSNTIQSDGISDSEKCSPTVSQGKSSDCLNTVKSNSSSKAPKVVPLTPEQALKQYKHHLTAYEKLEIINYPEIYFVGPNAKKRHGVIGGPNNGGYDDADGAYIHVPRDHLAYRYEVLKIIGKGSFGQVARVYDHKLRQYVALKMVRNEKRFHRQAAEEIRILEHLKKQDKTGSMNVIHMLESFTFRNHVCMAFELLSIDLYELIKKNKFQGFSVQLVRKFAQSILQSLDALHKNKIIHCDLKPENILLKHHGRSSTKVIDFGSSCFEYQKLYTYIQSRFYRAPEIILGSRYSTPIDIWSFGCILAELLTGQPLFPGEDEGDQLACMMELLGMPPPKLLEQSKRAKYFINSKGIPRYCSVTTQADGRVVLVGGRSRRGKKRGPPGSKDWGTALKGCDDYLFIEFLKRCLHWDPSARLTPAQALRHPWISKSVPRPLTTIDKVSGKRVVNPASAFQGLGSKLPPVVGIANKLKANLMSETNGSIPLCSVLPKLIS
The following applies: read-out: % Enzyme Activity (relative to DMSO controls), DYRK3.

Assay [2] concerns the target T2, panel of 374 wild-type kinases (Homo sapiens, UniProt Q00536).
T2 construct: purchased Reaction Biology Corporation
The note with it: read-out: % Enzyme Activity (relative to DMSO controls), CDK16/cyclin Y (PCTAIRE).

Assay [3] deals with T3, panel of 374 wild-type kinases (Homo sapiens, UniProt Q06187).
T3 construct: purchased Reaction Biology Corporation
The following applies: read-out: % Enzyme Activity (relative to DMSO controls), BTK.

The target of assay [4] is T4, panel of 374 wild-type kinases (Homo sapiens, UniProt Q12851).
T4 construct: purchased Reaction Biology Corporation
T4 sequence (Q12851 1-820): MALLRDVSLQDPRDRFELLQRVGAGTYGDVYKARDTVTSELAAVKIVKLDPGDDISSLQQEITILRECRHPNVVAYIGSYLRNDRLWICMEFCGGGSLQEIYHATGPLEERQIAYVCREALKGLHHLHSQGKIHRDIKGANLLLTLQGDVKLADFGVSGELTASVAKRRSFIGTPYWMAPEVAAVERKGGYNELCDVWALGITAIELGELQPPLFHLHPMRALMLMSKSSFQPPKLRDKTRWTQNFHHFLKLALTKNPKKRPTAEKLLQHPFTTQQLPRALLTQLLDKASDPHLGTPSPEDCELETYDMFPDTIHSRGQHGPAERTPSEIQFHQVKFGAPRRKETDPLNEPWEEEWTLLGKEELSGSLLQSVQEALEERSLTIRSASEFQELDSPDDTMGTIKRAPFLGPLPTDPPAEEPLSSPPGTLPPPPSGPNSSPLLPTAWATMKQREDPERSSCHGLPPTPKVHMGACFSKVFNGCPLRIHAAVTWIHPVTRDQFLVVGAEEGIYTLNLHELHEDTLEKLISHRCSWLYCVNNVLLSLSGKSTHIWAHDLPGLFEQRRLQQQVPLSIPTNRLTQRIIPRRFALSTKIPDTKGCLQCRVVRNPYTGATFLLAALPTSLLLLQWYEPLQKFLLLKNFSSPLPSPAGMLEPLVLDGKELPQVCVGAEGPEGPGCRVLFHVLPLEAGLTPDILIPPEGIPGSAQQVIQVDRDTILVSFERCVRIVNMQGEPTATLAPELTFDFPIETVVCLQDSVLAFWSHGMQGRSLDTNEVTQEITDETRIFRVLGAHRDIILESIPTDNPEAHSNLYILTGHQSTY
The following applies: read-out: % Enzyme Activity (relative to DMSO controls), GCK/MAP4K2.

Assay [5] has as its target T5, panel of 374 wild-type kinases (Homo sapiens, UniProt Q15835).
T5 construct: purchased Reaction Biology Corporation
T5 sequence (Q15835 1-563): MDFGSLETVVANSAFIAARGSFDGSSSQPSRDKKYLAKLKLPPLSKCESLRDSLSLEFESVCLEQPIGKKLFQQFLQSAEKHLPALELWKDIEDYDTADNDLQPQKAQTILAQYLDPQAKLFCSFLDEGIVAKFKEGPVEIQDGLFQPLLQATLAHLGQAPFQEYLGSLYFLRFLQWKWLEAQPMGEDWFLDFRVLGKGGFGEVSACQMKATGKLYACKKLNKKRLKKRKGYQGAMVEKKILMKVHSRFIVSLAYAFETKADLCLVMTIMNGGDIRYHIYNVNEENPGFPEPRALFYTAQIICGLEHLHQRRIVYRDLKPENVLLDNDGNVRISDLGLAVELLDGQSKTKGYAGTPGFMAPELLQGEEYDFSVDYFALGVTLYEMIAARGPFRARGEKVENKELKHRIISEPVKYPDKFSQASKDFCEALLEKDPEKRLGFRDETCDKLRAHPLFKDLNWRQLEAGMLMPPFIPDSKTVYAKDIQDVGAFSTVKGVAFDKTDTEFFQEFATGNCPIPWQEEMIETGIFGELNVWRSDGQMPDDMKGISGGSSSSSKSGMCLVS
The following applies: read-out: % Enzyme Activity (relative to DMSO controls), GRK1.

The target of assay [6] is T6, panel of 374 wild-type kinases (Homo sapiens, UniProt Q8NG66).
T6 construct: purchased Reaction Biology Corporation
T6 sequence (Q8NG66 1-645): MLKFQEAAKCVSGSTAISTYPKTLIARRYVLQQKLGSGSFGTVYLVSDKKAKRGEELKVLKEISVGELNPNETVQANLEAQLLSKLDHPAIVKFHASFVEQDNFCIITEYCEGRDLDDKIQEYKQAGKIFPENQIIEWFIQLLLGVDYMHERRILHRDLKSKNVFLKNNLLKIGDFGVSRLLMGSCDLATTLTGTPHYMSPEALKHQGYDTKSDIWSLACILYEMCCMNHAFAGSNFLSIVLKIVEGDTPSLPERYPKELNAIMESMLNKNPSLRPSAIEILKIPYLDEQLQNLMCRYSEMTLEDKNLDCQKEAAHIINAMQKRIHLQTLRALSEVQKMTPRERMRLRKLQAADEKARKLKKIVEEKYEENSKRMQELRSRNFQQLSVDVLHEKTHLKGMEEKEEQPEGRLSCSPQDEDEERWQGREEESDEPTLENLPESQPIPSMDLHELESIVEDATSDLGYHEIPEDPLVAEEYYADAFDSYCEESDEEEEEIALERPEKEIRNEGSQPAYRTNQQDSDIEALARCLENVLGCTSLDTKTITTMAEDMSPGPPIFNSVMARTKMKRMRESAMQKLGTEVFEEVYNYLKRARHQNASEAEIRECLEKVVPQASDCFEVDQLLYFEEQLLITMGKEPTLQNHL
The following applies: read-out: % Enzyme Activity (relative to DMSO controls), NEK11.

T2 sequence (Q00536 whole entry): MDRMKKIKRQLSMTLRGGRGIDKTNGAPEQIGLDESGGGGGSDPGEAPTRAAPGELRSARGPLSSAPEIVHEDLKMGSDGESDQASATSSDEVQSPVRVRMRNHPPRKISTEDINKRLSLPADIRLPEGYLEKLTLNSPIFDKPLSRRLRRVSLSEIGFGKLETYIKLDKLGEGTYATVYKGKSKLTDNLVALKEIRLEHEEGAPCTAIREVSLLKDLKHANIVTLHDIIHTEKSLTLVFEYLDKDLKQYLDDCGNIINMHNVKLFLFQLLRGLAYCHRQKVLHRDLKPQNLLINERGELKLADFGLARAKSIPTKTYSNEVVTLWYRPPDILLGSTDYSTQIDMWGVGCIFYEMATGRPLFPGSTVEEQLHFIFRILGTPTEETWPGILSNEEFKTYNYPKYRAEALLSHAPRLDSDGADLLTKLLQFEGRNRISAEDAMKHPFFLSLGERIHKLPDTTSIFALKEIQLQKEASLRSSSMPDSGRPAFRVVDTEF
T3 sequence (Q06187 whole entry): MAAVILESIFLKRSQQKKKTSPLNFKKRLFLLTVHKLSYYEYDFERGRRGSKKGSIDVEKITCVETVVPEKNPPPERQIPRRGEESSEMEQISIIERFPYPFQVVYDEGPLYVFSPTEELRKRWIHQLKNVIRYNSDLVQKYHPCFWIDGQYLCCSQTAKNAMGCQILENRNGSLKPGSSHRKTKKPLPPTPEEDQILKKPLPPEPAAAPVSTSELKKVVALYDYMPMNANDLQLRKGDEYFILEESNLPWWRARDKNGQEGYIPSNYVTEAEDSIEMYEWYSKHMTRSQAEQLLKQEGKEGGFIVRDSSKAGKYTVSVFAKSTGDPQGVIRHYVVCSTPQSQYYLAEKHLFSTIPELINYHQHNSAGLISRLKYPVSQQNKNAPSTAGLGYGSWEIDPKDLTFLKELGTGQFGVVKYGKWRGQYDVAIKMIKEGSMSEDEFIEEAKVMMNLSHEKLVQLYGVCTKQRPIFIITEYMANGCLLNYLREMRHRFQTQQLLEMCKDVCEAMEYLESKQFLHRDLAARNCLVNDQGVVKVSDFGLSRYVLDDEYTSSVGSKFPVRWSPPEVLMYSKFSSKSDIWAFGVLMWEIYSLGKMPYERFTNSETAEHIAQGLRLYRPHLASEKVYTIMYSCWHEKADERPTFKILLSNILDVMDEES

Consider `Cc1sc(C(=O)NC2COC2)cc1-n1cc(NC(=O)Nc2c(F)cccc2Cl)cn1` [Compound 27, 4-(4-(3-(2-chloro-6-fluorophenyl)ureido)-1H-pyrazol-1-yl)-5-methyl-N-(oxetan-3-yl)thiophene-2-carboxamide], for which the remaining activity at 10 µM came out at 101% in assay [1] (10 uM); 102% in assay [2] (10 uM); 87.6% in assay [3] (10 uM); 90.2% in assay [4] (10 uM); 113% in assay [5] (10 uM); 70% in assay [6] (10 uM).
On to `O=C(Nc1cnn(-c2csc(C(=O)NC3COC3)c2)c1)Nc1c(F)cccc1Cl` [Compound 25, 4-(4-(3-(2-chloro-6-fluorophenyl)ureido)-1H-pyrazol-1-yl)-N-(oxetan-3-yl)thiophene-2-carboxamide], for which the remaining activity at 5 µM in assay [1] came out at 99.2%; in assay [2] it was 101%; in assay [3] it was 89.3%; in assay [4], 95.3%; in assay [5], 92.9%; in assay [6] it was 89.5%.
With `O=C(Nc1cnn(-c2csc(C(=O)NC3COC3)c2)c1)Nc1ccccc1Cl` [Compound 17, 4-(4-(3-(2-chlorophenyl)ureido)-1H-pyrazol-1-yl)-N-(oxetan-3-yl)thiophene-2-carboxamide], the remaining activity at 5 µM in assay [1] is 93.3%; in assay [2] it was 94.8%; in assay [3] it was 92.6%; in assay [4], 105%; in assay [5] it was 91.9%; in assay [6], 145%.
